Experimental data taken from patent US11613538B2, “Method of inhibiting or reducing a viral infection” (PTC Therapeutics, Inc., priority 2009, dated 2023).
pEC50: −log10 of the molar value. Entries after “also recorded” stand apart in the source; their conditions may differ.

Experiments:
Caki-1 cells = assay: Caki-1 renal cell carcinoma xenograft (VHL-positive), tumor volume; type: in vivo, mice
Protocol: The Caki-1 cell line expresses the von Hippel-Lindau (VHL) protein which acts as a tumor suppressor by promoting the rapid degradation of HIF-1α (hypoxia-inducible factor 1α) under normoxia. Under hypoxic conditions, HIF-1α is stabilized and activated by the inability of VHL to act resulting in increased transcription of VEGF that is responsible for the high vascularization of RCC (see Turcotte et al, 2003, Zimmer et al, 2004).
(§1) A total of 100 mice were injected, of which 60 were used in the study.
Groups were taken off study when the mean tumor volume in a group was 1300 mm^3 or more. Vehicle-treatment started on Day 0 and continued through Day 35. Compound #10-treatment started on Day 0 and continued through Day 52.
(§2) Tumors were measured twice per week using digital calipers.
[…] The median values were reported.

[1] = 786-O xenograft study: body weight and clinical observations; settings: 786-O study, in words
786-O cells = assay: 786-O renal cell carcinoma xenograft (VHL-negative), tumor volume; type: in vivo, mice
Protocol: Both sunitinib and rapamycin are used clinically for treatment of renal cancer.
as §1
Groups were taken off study when the mean tumor volume in a group was 1300 mm^3 or more. Vehicle-treatment started on Day 0 and continued through Day 57. Compound #10-treatment started on Day 0 and continued through Day 88.
as §2
The time to progression to reach a tumor volume 1000 mm^3 was calculated for each mouse. The median values were reported.

[2] = Caki-1 xenograft study: body weight and clinical observations; type: in vivo, mice; settings: Caki-1 study, in words
Excerpt: Body Weight: The mice were weighed once per week.

[3] = mouse, in vivo
HT1080 xenografts = assay: HT1080 xenograft tumor growth in male athymic nude mice; type: in vivo; settings: study #24a; 10 mg/kg QD; in words
Excerpt: Experimental Design. HT1080 cells (5×10^6 cells/mouse) were implanted subcutaneously in male athymic nude mice. […] For comparison, Compound #10 was included in this study.

[4] = tested on: hypoxia-induced VEGF production in HeLa cells; assay: cells; type: cell-based, human; settings: Homo sapiens, HeLa

Compound | pEC50 [4] | further results
CCN(CC)CCNC(=O)c1c(C)[nH]c(/C=C2\C(=O)Nc3ccc(F)cc32)c1C [sunitinib] | – | Median time for tumors to reach 1000 mm^3 (Caki-1 cells; Compound #10 10 mg/kg QD PO, sunitinib 75 mg/kg QD PO, rapamycin 15 mg/kg PO): 66 days; Tumors smaller than those in vehicle-treated mice (Caki-1 cells; Day 35, Compound #10 10 mg/kg QD PO, sunitinib 75 mg/kg QD PO, rapamycin 15 mg/kg PO): 66%; Tumor size (mean±SD) (Caki-1 cells; Day 98, 75 mg/kg QD, PO): 1494±1150 mm^3; Survival of treated mice ([1]; all mice): survived until sacrificed; Clinical observation: skin ([1]; from Day 7 onward, all mice): yellow-tinged skin; Body weight change from initial body weight [1]: transiently lost weight; Median time for tumors to reach 1000 mm^3 (786-O cells; Compound #10 10 mg/kg QD PO, sunitinib 75 mg/kg QD PO, rapamycin 15 mg/kg PO, time on study used if not reached): 119 days; Tumors smaller than those in vehicle-treated mice (786-O cells; Day 57, Compound #10 10 mg/kg QD PO, sunitinib 75 mg/kg QD PO, rapamycin 15 mg/kg PO): 83%; Tumor size (mean±SD) (786-O cells; Day 119, 75 mg/kg QD, PO): 709938 mm^3; Clinical observation: skin ([2]; from Day 8 onward, all mice): yellow-tinged skin; Body weight change from initial body weight [2]: transiently lost weight; Individual mice found dead or sacrificed [2]: sacrificed on Day 4; also recorded: found dead on Day 17; also recorded: found dead on Day 95; Mice of the treatment group that had died or were sacrificed due to sickness [3]: 1 of the 10 mice
O=C(Oc1ccc(Cl)cc1)N1CCc2c([nH]c3ccc(Cl)cc23)[C@H]1c1ccc(OCC[C@H](O)CO)cc1 [Compound 1330] | < 6.00 | Growth of HT1080 tumors in vivo (FIG. 4) (HT1080 xenografts): overlapped with the growth of tumors in mice treated with 0.5% HPMC vehicle
[H]/N=c1\scnn1CCOc1ccc(C2c3[nH]c4ccc(Cl)cc4c3CCN2C(=O)OCCOC)cc1 (stereo not shown) [Compound 1412] | 7.40 to 8.10 | –
CCOC(=O)N1CCc2c([nH]c3ccc(Cl)cc23)C1c1cccc(OCCCN2CCOCC2)c1 (stereo not shown) [Compound 1114] | 7.40 to 8.10 | –
CC(C)COC(=O)N1CCc2c([nH]c3ccc(Cl)cc23)C1c1ccc(OCCn2cc(C#N)c(N)n2)cc1 (stereo not shown) [Compound 1408] | > 8.10 | –
CC#CCOC(=O)N1CCc2c([nH]c3cccc(Cl)c23)C1c1ccc(OC)cc1 (stereo not shown) [Compound 1530] | 6.70 to 7.40 | –
CCOC(=O)N1CCc2c([nH]c3ccc(Cl)cc23)[C@@H]1c1ccc(OCCCNC2CCCC2)cc1 [Compound 1236] | 7.40 to 8.10 | –
COc1ccc(C2c3[nH]c4cccc(Br)c4c3CCN2C(=O)Oc2ccccc2Cl)cc1 (stereo not shown) [Compound 1528] | < 6.00 | –
CCN(CC)C[C@H](O)COc1ccc([C@H]2c3[nH]c4ccc(Cl)cc4c3CCN2c2ncccn2)cc1 [Compound 1309] | 7.40 to 8.10 | –
CCOC(=O)N1CCc2c([nH]c3ccc(Cl)cc23)C1c1ccc(OCC(=O)N2CCOCC2)cc1 (stereo not shown) [Compound 1012] | 6.70 to 7.40 | –
CCOC(=O)c1csc(N2CCc3c([nH]c4ccc(Cl)cc34)C2c2ccc(OC)cc2)n1 (stereo not shown) [Compound 1585] | > 8.10 | –
C=CCOc1ccc([C@H]2c3[nH]c4ccc(Cl)cc4c3CCN2C(=O)OCC2CCCC2)cc1 [Compound 1609] | > 8.10 | –
C[Si](C)(C)CCS(=O)(=O)N1CCC(Oc2ccc(C3NCCc4c3[nH]c3ccc(Cl)cc43)cc2)CC1 (stereo not shown) [Compound 1556] | 6.70 to 7.40 | –
COc1ccc(C2c3[nH]c4ccc(Cl)cc4c3CCN2C(=O)Oc2ccc(Cl)cc2)cc1OCCCN1CCOCC1 (stereo not shown) [Compound 1096] | 6.00 to 6.70 | –
COc1ccc(OC(=O)N2CCc3c([nH]c4ccc([S+](C)[O-])cc34)C2c2ccc(OC)cc2)cc1 (stereo not shown) [Compound 1490] | < 6.00 | –
CN1CCN(Cc2cnc(Oc3ccc([C@H]4c5[nH]c6ccc(Cl)cc6c5CCN4C(=O)Oc4ccc(Cl)cc4)cc3)s2)CC1 [Compound 1661] | > 8.10 | –
COc1ccc(C2c3[nH]c4ccc(Cl)cc4c3CCN2C(=O)C(=O)Oc2ccc(Cl)cc2)cc1 (stereo not shown) [Compound 1720] | < 6.00 | –
C=CCOC(=O)N1CCc2c([nH]c3ccc(Cl)cc23)C1c1ccc(OCCCn2ccnn2)cc1 (stereo not shown) [Compound 1080] | > 8.10 | –
CN1CCC(COc2ccc(C3c4[nH]c5ccc(Cl)cc5c4CCN3C(=O)Oc3ccc(Cl)cc3)cc2)CC1 (stereo not shown) [Compound 1099] | 7.40 to 8.10 | –
CC(C)COC(=O)N1CCc2c([nH]c3ccc(Cl)cc23)C1c1ccc(OCCCO)cc1 (stereo not shown) [Compound 1061] | > 8.10 | –
COc1cc(C2c3[nH]c4ccc(Cl)cc4c3CCN2C(=O)Oc2ccc(Cl)cc2)ccc1OCCCN1CCOCC1 (stereo not shown) [Compound 1093] | 7.40 to 8.10 | –
COCCOC(=O)N1CCc2c([nH]c3ccc(Cl)cc23)C1c1ccc(OCCNc2cc(C)no2)cc1 (stereo not shown) [Compound 1411] | 6.00 to 6.70 | –
O=C(Oc1ccc(Cl)cc1)N1CCc2c([nH]c3ccc(Cl)cc23)C1c1ccc(OCCCNCCO)cc1 (stereo not shown) [Compound 1183] | > 8.10 | –

Compound | pEC50 [4] | further results
CCOC(=O)N1CCc2c([nH]c3ccc(Cl)cc23)[C@@H]1c1ccc(OCCC(O)CN(CCO)CCO)cc1 (stereo partly shown) [Compound 1273] | 7.40 to 8.10 | –
COc1ccc(C2c3[nH]c4ccc(Cl)cc4c3CCN2c2nc(C)cs2)cc1 (stereo not shown) [Compound 1584] | > 8.10 | –
CC(C)OC(=O)N1CCc2c([nH]c3ccc(Cl)cc23)[C@@H]1c1ccc(OCC2(CO)COCOC2)cc1 [Compound 1360] | 7.40 to 8.10 | –
Clc1ccc2[nH]c3c(c2c1)CCN(c1ncccn1)[C@H]3c1ccc(OC[C@H]2CO2)cc1 [Compound 1246] | 7.40 to 8.10 | –
CC(C)COC(=O)N1CCc2c([nH]c3ccc(Cl)cc23)C1c1ccc(OCCCN2CCN(C)CC2)cc1 (stereo not shown) [Compound 1104] | 7.40 to 8.10 | –
CCCOC(=O)N1CCc2c([nH]c3ccc(Cl)cc23)C1c1ccc(OCC2OCCO2)cc1 (stereo not shown) [Compound 1034] | > 8.10 | –
CC#CCOC(=O)N1CCc2c([nH]c3ccc(Cl)cc23)[C@@H]1c1ccc(OC2CCOCC2)cc1 [Compound 1603] | > 8.10 | –
O=C(OCC1CCC1)N1CCc2c([nH]c3ccc(Cl)cc23)[C@@H]1c1ccc(OCC[C@H](O)CO)cc1 [Compound 1374] | > 8.10 | –
CCOC(=O)N1CCc2c([nH]c3ccc(Cl)cc23)C1c1ccc(OCC(=O)NCCN2CCOCC2)cc1 (stereo not shown) [Compound 1004] | 7.40 to 8.10 | –
CCOC(=O)N1CCc2c([nH]c3ccc(Cl)cc23)C1c1ccc(OCCn2nc(N)cc2C)cc1 (stereo not shown) [Compound 1399] | > 8.10 | –
CCOC(=O)N1CCc2c([nH]c3ccc(Cl)cc23)[C@@H]1c1ccc(Oc2nc(C)cnc2C)cc1 [Compound 1653] | > 8.10 | –
CCOC(=O)N1CCc2c([nH]c3ccc(Cl)cc23)C1c1ccc(OCCCOCCOC)cc1 (stereo not shown) [Compound 1396] | < 6.00 | –
COc1cc(C2c3[nH]c4ccc(Cl)cc4c3CCN2C(=O)Oc2ccc(F)cc2)ccc1OCCCn1ccnn1 (stereo not shown) [Compound 1147] | 7.40 to 8.10 | –
COc1ccc(C2c3[nH]c4ccc(Cl)cc4c3CCN2c2nc(C)c(C(=O)N(C)C)s2)cc1 (stereo not shown) [Compound 1588] | 6.70 to 7.40 | –
CC#CCOC(=O)N1CCc2c([nH]c3ccc(Cl)cc23)[C@@H]1c1ccc(OC2CCN(S(=O)(=O)CC[Si](C)(C)C)CC2)cc1 [Compound 1606] | > 8.10 | –
CCOC(=O)N1CCc2c([nH]c3ccc(Cl)cc23)[C@@H]1c1ccc(OCCCNC2CC2)cc1 [Compound 1264] | 7.40 to 8.10 | –
COc1ccc(C2c3[nH]c4ccc(Cl)cc4c3CCN2c2nc(-c3ccncc3)cs2)cc1 (stereo not shown) [Compound 1594] | 6.70 to 7.40 | –
COc1ccc(C2c3[nH]c4ccc(S(C)(=O)=O)cc4c3CCN2C(=O)Oc2ccc(F)cc2)cc1 (stereo not shown) [Compound 1499] | < 6.00 | –
O=C(OCCCCl)N1CCc2c([nH]c3ccc(Cl)cc23)C1c1ccc(OCC2OCCO2)cc1 (stereo not shown) [Compound 1041] | 7.40 to 8.10 | –
CCOC(=O)N1CCc2c([nH]c3ccc(Cl)cc23)[C@@H]1c1ccc(O)cc1 [Compound 1218] | 7.40 to 8.10 | –
O=C(Oc1ccc(Cl)cc1)N1CCc2c([nH]c3ccc(Cl)cc23)C1c1ccc(OCCCN2CCC(O)CC2)cc1 (stereo not shown) [Compound 1537] | > 8.10 | –
[H]/N=C(\N)NCCOc1ccc(C2c3[nH]c4ccc(Cl)cc4c3CCN2C(=O)OCC(C)C)cc1 (stereo not shown) [Compound 1435] | 6.00 to 6.70 | –
